Assay results reported in patent US20220308062A1, “METHODS FOR PREDICTING DRUG RESPONSIVENESS IN SAMPLES FROM CANCER SUBJECTS” (Board of Regents, The University of Texas System, priority 2019, published 2022).

Experiments:
Assay type in all cases: cell-based, human
[1] = tested on: patient-derived organoids (PDOs); experiment: Patient-derived organoid CellTiter-Glo cell viability
Procedure: Patient-derived organoids (PDOs). Tumor tissues were minced on ice into 1 mm^3 small pieces. Tumor pieces (˜20 μl in volume) were resuspended in 200 μl Matrigel and seeded into 24 well plates for 15 min until gel solidify, followed by culture in advanced DMEM/F12 medium supplemented with B27 and N2 (Thermo Fisher Scientific), 0.01% BSA (Roche), 100 units/m penicillin-streptomycin (Thermo Fisher Scientific), and others (Table 4) for 4-8 weeks to grow organoids. […] The CellTiter-Glo Luminescent Cell Viability assay was used to determine drug responsiveness.

A549 cells = experiment: RNA-seq of TP-0903-treated A549 cells; details: A549, 40 nmol/L
Procedure: RNA-seq. Total RNA was extracted from TP-0903-treated and AXL-knockdown A549 cells and from respective controls in two biological replicates by using the PureLink RNA Mini Kit (Thermo Fisher Scientific). Sequencing of cDNAs was performed with Illumina HiSeq3000 as per manufacturer's instructions. Paired-end FASTQ files were generated and aligned with the human reference genome GRCh38 by using STAR alignment software. RSEM was applied to quantify gene expression levels, and fragments per kilobase of transcript per million (FPKM) mapped reads were calculated. The different expression levels of genes were compared between control and treatment groups by using RSEM software. […] Both gene sets were used to perform pathway enrichment analysis on Gene Ontology Consortium (http://geneontology.org/) by using Reactome pathway databases in PANTHER [45, 46]. Significant pathways were further analyzed with gene sets downloaded from the Molecular Signatures Database v6.2 (http://software.broadinstitute.org/gsea/msigdb/). Fold changes of candidate genes were calculated on the basis of log FPKM values and used to generate heat maps.
RNA-seq. […] The RSEM software was applied to quantify expression levels, and fragments per kilo base of transcript per million (FPKM) mapped reads were calculated. […]

[2] = tested on: PMA-stimulated U937 macrophages cocultured with A549 or H2009; experiment: U937 coculture with lung cancer cells, CyTOF
Source text: Materials and methods. U937 coculture with lung cancer cells. […] The cells were harvested and fixed to process CyTOF staining. Antibodies were conjugated in-house according to the manufacturer's instructions or purchased in pre-conjugated forms from the supplier (Fluidigm). Single cells from cell lines were harvested and stained with cisplatin and metal-conjugated surface antibodies sequentially for viability and surface staining. After fixation and permeabilization, cells were stained with metal-conjugated antibodies. The cells were then labeled with an iridium-containing DNA intercalator (191Ir+ or 193Ir+) for identification of cell events before analysis on a Helios mass cytometer. Signals were bead-normalized using EQ Four Element Calibration Beads.
Signals of samples were normalized using CyTOF software (Version 6.7.1014, Fluidigm). The generated files underwent signal cleanup and filtering for single cells using Cytobank (https://www.cytobank.org/). Macrophage population was gated out based on CD45 expression to generate Flow Cytometry Standard (FCS) file. The gated FCS file were downloaded for further analysis using Cytofkit. The PhenoGraph clustering algorithm in Cytofkit was implemented in R from the Bioconductor website (https://bioconductor.org/packages/cytofkit/). CyTOF data of macrophage were clustered and visualized using t-distributed stochastic neighbor embedding (t-SNE) algorithm based on normalized expression levels (Z-score) of 4 markers (CD14, CD16, CD163 and CD86).

In the case of `CN1CCN(Cc2ccc(Nc3ncc(Cl)c(Nc4ccccc4S(=O)(=O)N(C)C)n3)cc2)CC1` [TP-0903], the PDO sensitivity ([1]; PDOs from tumors with high AXL and JAK1) is reported as “sensitive”, the “PDO response (cell viability)” value ([1]; PDOs of Pt 008 and 010 (Category I/II), TP-0903 20 nmol/L or ruxolitinib 15 μmol/L, 72 hr) is reported as “did not respond robustly” and the “IL-11 expression (RNA-seq)” value (A549 cells) is reported as “down-regulated significantly”. For the same molecule, the “IL-11 expression (RNA-seq)” value (A549 cells; listed as TP0903) was “markedly downregulated”, the “high CD163 subpopulations” value ([2]; 20, 40 and 80 nmol/L, increasing concentration) was “decreased” and the “CD14high/CD16+/CD163high/CD86high macrophage subtype proportion” value ([2]; 72 hr coculture) was “decreased”. The “SMAD2 in CD14high/CD16+/CD163high/CD86high subtype” value ([2]; 72 hr coculture) was “down-regulated”.
